Measurements reported in patent US8785400B2, “Methods and compositions relating to islet cell neogenesis” (CureDM Group Holdings, LLC, priority 2006, dated 2014).

Tests used:
[1] = system: human pancreatic progenitor cells; test: Inverted microscopy of human ductal/progenitor tissue cultures (Example 4); assay type: cell-based
[2] = system: pancreatic islets of treated mice; test: Quantitative immunohistochemistry image analysis of mouse pancreata (Example 7); assay type: in vivo; conditions: vs control
Text: The islet mass of the placebo group was 854,362 μm (2) compared with 2,161,782 μm (2) in HIP-treated mice.
Islet size was not different between HIP treated and control group, whereas, islet number and mass was increased.

NOD mice = test: NOD mouse model of type 1 diabetes (Example 5); assay type: in vivo; conditions: 250 ug/dose i.p. twice daily, 28 days, with anti-CD3, vs other test agents
Text: The non-obese diabetic (NOD) mouse strain has long been studied as an excellent model of type 1 diabetes because it spontaneously develops a disease that is very similar to the human condition. Diabetes in NOD mice is mediated by inflammatory autoreactive T cells that recognize pancreatic islet antigens and escape central and peripheral tolerance. In a parental colony of NOD mice, incidence of diabetes in female NOD mice is typically 75-90% by 30 weeks but may exceed 90% in some cohorts. In this example, 50 female NOD mice, ranging from 13-14 weeks old at the outset of the study, are used to test the effectiveness of HIP2 as compared to other test agents. Due to the unexpected variability of the degree of onset of disease, the number used in this example (50 female mice) is considered to be the minimum needed to result in a sufficient number of mice that will onset with disease within the timeframe of the study.
Animals were group housed in compliance with the National Research Council “Guide for the Care and Use of Laboratory Animals”. The animals received 12 hours light/12 hours dark, except when room lights were turned on during the dark cycle to accommodate study procedures. Room temperature was maintained between 18 to 26° C. at all times. […]
Blood glucose levels are measured every 3 days and tracked to evaluate differences in glucose levels.

Q: How did the “morphology of ductal tissue culture fraction (FIG. 4)” value ([1]; after treatment, just before lysis and RIA) turn out when “HIP2: Human proIslet Peptide, fragment of human REG3A, in purified, synthetic, or recombinant form (SEQ ID NO:4) (IGLHDPTQGTEPNG; Fragment of naturally occurring human REG3 protein)” was run?
A: Morphological changes show islet like structure

Q: And the “morphology of progenitor tissue cultures (FIG. 7A)” value ([1]; day 2 of treatment (day 12))?
A: starting to bud at one end where a progenitor cell resides

Q: What about the “morphology of progenitor tissue cultures (FIG. 7B)” value ([1]; day 6 of treatment (day 18)) of the same substance?
A: darkening of the budding portion of the ductal epithelial cyst indicates the differentiation of cells

Q: What about the “islet structure formation (micrograph, FIG. 4A)” value ([1]; pancreatic ductal tissue fraction culture, six days of culture with peptide) of the same substance?
A: New islet structure has formed

Q: What about the “total islet mass (qualitative)” value [2] of the same substance?
A: increased total islet mass

Q: What about the “total islet number (qualitative)” value [2] of the same substance?
A: increased total islet number

Q: And the blood glucose levels (NOD mice)?
A: pronounced reduction

Q: What about the insulinitis in pancreas (NOD mice) of the same substance?
A: decreased showing of insulinitis
